Data: patent US9309198B2, “N-[3-(2-carboxyethyl)phenyl]piperidin-1-ylacetamide derivatives and use thereof as activators of soluble guanylate cyclase” (Bayer Pharma Aktiengesellschaft, priority 2012, dated 2016)

Tests used:
[1] = molecular target: T1, recombinant soluble guanylate cyclase (sGC), haem-containing (Rattus norvegicus, UniProt P20595); assay: Stimulation of recombinant soluble guanylate cyclase (sGC) in vitro, haem-containing enzyme; type: biochemical; details: for Stimulation (x-times) of haem-containing sGC, Basal: n = 2
T1 construct: made in house
T1 sequence (P20595 1-619): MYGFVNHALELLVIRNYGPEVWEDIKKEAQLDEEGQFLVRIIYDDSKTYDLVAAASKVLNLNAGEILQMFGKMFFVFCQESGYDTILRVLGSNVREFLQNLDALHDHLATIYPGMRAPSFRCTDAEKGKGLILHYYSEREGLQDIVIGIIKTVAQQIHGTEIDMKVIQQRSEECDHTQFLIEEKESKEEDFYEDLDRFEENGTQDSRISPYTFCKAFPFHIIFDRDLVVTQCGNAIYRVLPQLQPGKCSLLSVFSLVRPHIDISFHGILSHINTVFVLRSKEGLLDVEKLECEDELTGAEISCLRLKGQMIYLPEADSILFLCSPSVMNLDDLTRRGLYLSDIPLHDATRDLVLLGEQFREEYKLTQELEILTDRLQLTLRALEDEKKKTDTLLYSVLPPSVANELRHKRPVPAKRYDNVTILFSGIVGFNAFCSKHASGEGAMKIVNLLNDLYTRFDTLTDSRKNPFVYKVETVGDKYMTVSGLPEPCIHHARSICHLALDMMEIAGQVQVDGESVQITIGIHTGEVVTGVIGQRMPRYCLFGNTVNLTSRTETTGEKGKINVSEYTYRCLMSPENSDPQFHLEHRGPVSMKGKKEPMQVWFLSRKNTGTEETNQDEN
T1 sequence (P19686 1-690 partner): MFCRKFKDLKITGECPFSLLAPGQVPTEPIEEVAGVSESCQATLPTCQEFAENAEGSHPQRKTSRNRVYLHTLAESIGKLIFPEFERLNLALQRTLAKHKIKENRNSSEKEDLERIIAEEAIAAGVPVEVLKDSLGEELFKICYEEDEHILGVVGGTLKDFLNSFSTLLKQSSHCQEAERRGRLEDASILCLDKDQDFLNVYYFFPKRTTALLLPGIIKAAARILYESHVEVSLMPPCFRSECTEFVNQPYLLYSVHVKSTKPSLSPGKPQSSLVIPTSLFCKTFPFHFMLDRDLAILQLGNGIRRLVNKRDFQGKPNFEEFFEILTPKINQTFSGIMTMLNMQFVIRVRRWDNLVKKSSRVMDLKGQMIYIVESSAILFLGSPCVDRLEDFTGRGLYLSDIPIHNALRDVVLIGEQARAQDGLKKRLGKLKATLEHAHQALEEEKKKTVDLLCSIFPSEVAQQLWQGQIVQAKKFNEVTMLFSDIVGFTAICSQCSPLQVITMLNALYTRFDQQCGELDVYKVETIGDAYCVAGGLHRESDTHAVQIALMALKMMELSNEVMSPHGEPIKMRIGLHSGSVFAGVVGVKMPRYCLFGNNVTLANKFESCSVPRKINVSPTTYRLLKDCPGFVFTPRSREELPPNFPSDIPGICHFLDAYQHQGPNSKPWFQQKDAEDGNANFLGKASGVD
From the text: (§1) B-1. Stimulation of Recombinant Soluble Guanylate Cyclase (sGC) In Vitro
Hoenicka, E. M. Becker, H. Apeler, T. Sirichoke, H. Schroeder, R. Gerzer and J.-P. Stasch, “Purified soluble guanylyl cyclase expressed in a baculovirus/Sf9 system: Stimulation by YC-1, nitric oxide, and carbon oxide”, J. Mol. Med. 77 (1999), 14-23. Haem-free guanylate cyclase is obtained by adding Tween 20 to the sample buffer (final concentration 0.5%).
(§2) Activation of sGC by a test substance is stated as x-fold stimulation of basal activity.

[2] = molecular target: T2, recombinant soluble guanylate cyclase (sGC), haem-free (Rattus norvegicus, UniProt P20595); assay: Stimulation of recombinant soluble guanylate cyclase (sGC) in vitro, haem-free enzyme; type: biochemical; details: n = 2
T2 construct: made in house
T2 sequence (P20595 1-619): T1 sequence (P20595 1-619)
T2 sequence (P19686 1-690 partner): T1 sequence (P19686 1-690 partner)
Experimental: as §1
The investigations on the stimulation of recombinant soluble guanylate cyclase (sGC) by the compounds according to the invention with and without sodium nitroprusside and with and without the haem-dependent sGC inhibitor 1H-1,2,4-oxadiazolo[4,3-a]quinoxalin-1-one (ODQ) are carried out by the method described in detail in the following literature reference: M. Hoenicka, E. M. Becker, H. Apeler, T. Sirichoke, H. Schroeder, R. Gerzer and J.-P. Stasch, “Purified soluble guanylyl cyclase expressed in a baculovirus/Sf9 system: Stimulation by YC-1, nitric oxide, and carbon oxide”, J. Mol. Med. 77 (1999), 14-23. Haem-free guanylate cyclase is obtained by adding Tween 20 to the sample buffer (final concentration 0.5%).
as §2

[3] = molecular target: T3, recombinant guanylate cyclase reporter cell line (sGC, CHO reporter cell) (Rattus norvegicus, UniProt P20595); assay: Effect on a recombinant guanylate cyclase reporter cell line (CHO reporter cell); type: cell-based
T3 construct: expressed in transfected cells; host or cells: CHO reporter cell line
T3 sequence (P20595 1-619): T1 sequence (P20595 1-619)
T3 sequence (P19686 1-690 partner): T1 sequence (P19686 1-690 partner)
Experimental: B-2. Effect on a Recombinant Guanylate Cyclase Reporter Cell Line The cellular activity of the compounds according to the invention is determined using a recombinant guanylate cyclase reporter cell line, as described in F. Wunder et al., Anal. Biochem. 339, 104-112 (2005).

[4] = molecular target: T4, soluble guanylate cyclase (sGC) (Rattus norvegicus, UniProt P20595); assay: Stimulation of sGC enzyme activity (PPi detection, luciferase luminescence); type: biochemical
T4 construct: made in house
T4 sequence (P20595 1-619): T1 sequence (P20595 1-619)
T4 sequence (P19686 1-690 partner): T1 sequence (P19686 1-690 partner)
Experimental: B-3. Stimulation of sGC Enzyme Activity
Soluble guanylate cyclase (sGC) converts on stimulation GTP into cGMP and pyrophosphate (PPi). PPi is detected with the aid of the assay described below. The signal produced in the assay increases as the reaction progresses and serves as a measure of the sGC enzyme activity under the given stimulation.
To carry out the assay, 29 μl of enzyme solution [0-10 nM soluble guanylate cyclase (prepared according to Hönicka et al., J. Mol. Med. 77, 14-23 (1999)) in 50 mM TEA, 2 mM MgCl2, 0.1% BSA (fraction V), 0.005% Brij®, pH 7.5] are initially introduced into a microplate, and 1 μl of the substance to be tested (as a serially diluted solution in DMSO) is added. The mixture is incubated at room temperature for 10 min. Then 20 μl of detection mix [1.2 nM Firefly Luciferase (Photinus pyralis luciferase, Promega), 29 μM dehydroluciferin (prepared according to Bitler & McElroy, Arch. Biochem. Biophys. 72, 358 (1957)), 122 μM luciferin (Promega), 153 μM ATP (Sigma) and 0.4 mM DTT (Sigma) in 50 mM TEA, 2 mM MgCl2, 0.1% BSA (fraction V), 0.005% Brij®, pH 7.5] are added. The enzyme reaction is started by adding 20 μl of substrate solution [1.25 mM guanosine 5′-triphosphate (Sigma) in 50 mM TEA, 2 mM MgCl2, 0.1% BSA (fraction V), 0.005% Brij®, pH 7.5] and measured continuously in a luminometer. The extent of the stimulation by the substance to be tested can be determined relative to the signal of the unstimulated reaction.
The activation of haem-free guanylate cyclase is examined by addition of 25 μM of 1H-1,2,4-oxadiazolo[4,3-a]quinoxalin-1-one (ODQ) to the enzyme solution and subsequent incubation for 30 minutes and compared to the stimulation of the native enzyme.

Stimulation (x-times) of haem-containing sGC, +0.01 μM DEA/NO ([1]; 0.01 μM Example 25 + 0.01 μM DEA/NO): 11.4 ± 3.9 x-times
Stimulation (x-times) of haem-containing sGC, +10 μM ODQ ([1]; 0.01 μM Example 25 + 10 μM ODQ): 2.3 ± 0.1 x-times
Stimulation (x-times) of haem-containing sGC, Basal ([1]; 0.01 μM Example 25): 0.9 ± 0.2 x-times
Stimulation (x-times) of haem-containing sGC, +0.01 μM DEA/NO ([1]; 0.1 μM Example 25 + 0.01 μM DEA/NO): 11.9 ± 4.2 x-times
Stimulation (x-times) of haem-containing sGC, +10 μM ODQ ([1]; 0.1 μM Example 25 + 10 μM ODQ): 2.7 ± 0.2 x-times
Stimulation (x-times) of haem-containing sGC, Basal ([1]; 0.1 μM Example 25): 0.9 ± 0.0 x-times
Stimulation (x-times) of haem-containing sGC, +0.01 μM DEA/NO ([1]; 1.0 μM Example 25 + 0.01 μM DEA/NO): 12.0 ± 3.9 x-times
Stimulation (x-times) of haem-containing sGC, +10 μM ODQ ([1]; 1.0 μM Example 25 + 10 μM ODQ): 10.5 ± 2.4 x-times
Stimulation (x-times) of haem-containing sGC, Basal ([1]; 1.0 μM Example 25): 2.8 ± 0.4 x-times
Stimulation (x-times) of haem-containing sGC, +0.01 μM DEA/NO ([1]; 10 μM Example 25 + 0.01 μM DEA/NO): 15.1 ± 2.9 x-times
Stimulation (x-times) of haem-containing sGC, +10 μM ODQ ([1]; 10 μM Example 25 + 10 μM ODQ): 32.5 ± 5.4 x-times
Stimulation (x-times) of haem-containing sGC, Basal ([1]; 10 μM Example 25): 8.6 ± 0.2 x-times
Effect of combination with the NO donor DEA/NO on sGC stimulation ([1]; combination with DEA/NO, haem-containing sGC): no synergistic effect
Stimulation (x-times) of haem-free sGC, Basal ([2]; 0.01 μM Example 25): 1.9 ± 0.8 x-times
Stimulation (x-times) of haem-free sGC, Basal ([2]; 0.1 μM Example 25): 2.4 ± 0.8 x-times
Stimulation (x-times) of haem-free sGC, Basal ([2]; 1.0 μM Example 25): 7.3 ± 3.6 x-times
Stimulation (x-times) of haem-free sGC, Basal ([2]; 10 μM Example 25): 26.6 ± 7.3 x-times
MEC (minimum effective concentration), sGC-activating activity in the CHO reporter cell in vitro [3]: 1 nM
MEC (minimum effective concentration), activating action at the sGC enzyme in vitro [4]: 2.2 nM
EC50 ([4]; read-out: EC50 (half-maximal effective concentration), activating action at the sGC enzyme in vitro): 15 nM
Structure (SMILES): C[C@H]([C@H](C(=O)Nc1cc(CC2(C(=O)O)CC2)ccc1Cl)N1CCC2(CC1)CC2)C(F)(F)F [Example 25, 1-(3-{[(2R,3R)-2-(6-Azaspiro[2.5]oct-6-yl)-4,4,4-trifluoro-3-methylbutanoyl]amino}-4-chlorobenzyl)cyclopropanecarboxylic acid]
Effect of the haem-dependent sGC inhibitor ODQ on the activity of the sGC activator ([1]; with ODQ, haem-containing sGC): not blocked but, in contrast, even enhanced
